Measured values reported in US11491460B2, “Porous cyclodextrin polymeric materials and methods of making and using same” (Cornell University, priority 2015, dated 2022).
Counter-ions that a name gives are not always drawn.

Columns and labels:
[1] = Micropollutant adsorption kinetics experiments on CCAC; conditions: CCAC 10 mg/L, MP 1 μg/L
[2] = Micropollutant adsorption kinetics experiments on P-CDP; conditions: P-CDP 10 mg/L, MP 1 μg/L
[3] = Batch adsorption kinetic studies of organic pollutants on P-CDP; conditions: estimated from the equilibrium efficiency value from the batch kinetic studies
[4] = cited from earlier work; for Cs, solubility in water: experimental values
[5] = Langmuir parameters of pollutant adsorption on P-CDP (Table 6); assay type: binding
Text: H. Thermodynamic studies of adsorption.
K (mol^−1) is the equilibrium constant.

fish populations = conditions: concentrations as low as; cited from earlier work
[6] = 23° C., estimated at t=30 minutes

SMILES | removal by CCAC (in words) [1] | removal by P-CDP (in words) [2] | also measured
CC(C)NCC(O)COc1ccc(CC(=O)O)cc1 (stereo not shown) [atenolol acid] | not effectively removed | removed well | –
O=S(=O)(c1ccc(O)cc1)c1ccc(O)cc1 [BPS, bisphenol S] | – | – | K, equilibrium constant [3]: ~17,000^c Mol^−1
COc1cccc(C2(O)CCCCC2CN(C)C)c1 (stereo not shown) [tramadol] | not effectively removed | removed well | –
CCc1cccc(C)c1N(C(=O)CCl)C(C)COC (stereo not shown) [metolachlor] | – | – | K, equilibrium constant [3]: ~35,000^c Mol^−1
O=C(O)COc1ccc(Cl)cc1Cl [2,4-D] | removed fairly well | hardly removed | kobs [1, 6]: 11.0 g/mg/min; kobs [2, 6]: 72.9 g/mg/min
CN1CC[C@]23c4c5ccc(O)c4O[C@H]2[C@@H](O)C=C[C@H]3[C@H]1C5 [morphine] | not effectively removed | removed well | –
Oc1ccc2ccccc2c1 [2-NO, 2-naphthol] | – | – | K, equilibrium constant [3]: ~30,000^c Mol^−1
COc1ccc(C(CN(C)C)C2(O)CCCCC2)cc1 (stereo not shown) [venlafaxine] | not effectively removed | removed well | –
CC(C)(C)NCC(O)c1ccc(O)c(CO)c1 (stereo not shown) [albuterol] | not effectively removed | removed well | –
CC(C)NCC(O)COc1ccc(CC(N)=O)cc1 (stereo not shown) [atenolol] | not effectively removed | removed well | –
CC(C)NCC(O)COc1cccc2ccccc12 (stereo not shown) [propranolol] | – | – | Cs, solubility in water [4]: 50 µg/mL
CC(C)(c1ccc(O)cc1)c1ccc(O)cc1 [BPA, Bisphenol A] | – | – | BPA/β-CD molar ratio at qmax,e [5]: 0.9; K, equilibrium constant ([5]; Langmuir): 56,500 Mol^−1; qmax,e, maximum adsorption capacity of pollutant on 1 g P-CDP at equilibrium ([5]; Langmuir): 88.5 mg/g
Oc1ccc(Cl)cc1Cl [DCP, 2,4-dichlorophenol] | – | – | K, equilibrium constant [3]: ~17,000^c Mol^−1
CC(N)Cc1ccccc1 (stereo not shown) [amphetamine] | not effectively removed | removed well | –
COc1ccc2c3c1O[C@H]1[C@@H](O)C=C[C@H]4[C@@H](C2)N(C)CC[C@@]341 [codeine] | not effectively removed | removed well | –
COc1ccc2c3c1O[C@H]1C(=O)CC[C@H]4[C@@H](C2)N(C)CC[C@]314 [hydrocodone] | not effectively removed | removed well | –
CC(C)NCC(O)COc1cccc2ccccc12 (stereo not shown) [propranolol hydrochloride] | – | – | K, equilibrium constant [3]: ~72,000^c Mol^−1
C#C[C@]1(O)CC[C@H]2[C@@H]3CCc4cc(O)ccc4[C@H]3CC[C@@]21C [ethinyl estradiol] | – | – | concentration that has caused the collapse of fish populations (fish populations): 5 pg/mL; pKa [4]: 10.4; Cs, solubility in water [4]: 2 µg/mL
